# Key:
# [1] = molecular target: T1, androgen receptor (AR) (Homo sapiens, UniProt P10275, T878A); assay: PSA (6.1 kb)-luciferase reporter assay in LNCaP cells; format: cell-based; details: R1881 1 nM, 24 hours; for inhibition of R1881 induction of PSA (6.1)-luciferase: 1 hour pretreatment
# T1 construct: endogenous in cells; host or cells: LNCaP human prostate cancer cells
# T1 sequence (P10275 1-920 T878A): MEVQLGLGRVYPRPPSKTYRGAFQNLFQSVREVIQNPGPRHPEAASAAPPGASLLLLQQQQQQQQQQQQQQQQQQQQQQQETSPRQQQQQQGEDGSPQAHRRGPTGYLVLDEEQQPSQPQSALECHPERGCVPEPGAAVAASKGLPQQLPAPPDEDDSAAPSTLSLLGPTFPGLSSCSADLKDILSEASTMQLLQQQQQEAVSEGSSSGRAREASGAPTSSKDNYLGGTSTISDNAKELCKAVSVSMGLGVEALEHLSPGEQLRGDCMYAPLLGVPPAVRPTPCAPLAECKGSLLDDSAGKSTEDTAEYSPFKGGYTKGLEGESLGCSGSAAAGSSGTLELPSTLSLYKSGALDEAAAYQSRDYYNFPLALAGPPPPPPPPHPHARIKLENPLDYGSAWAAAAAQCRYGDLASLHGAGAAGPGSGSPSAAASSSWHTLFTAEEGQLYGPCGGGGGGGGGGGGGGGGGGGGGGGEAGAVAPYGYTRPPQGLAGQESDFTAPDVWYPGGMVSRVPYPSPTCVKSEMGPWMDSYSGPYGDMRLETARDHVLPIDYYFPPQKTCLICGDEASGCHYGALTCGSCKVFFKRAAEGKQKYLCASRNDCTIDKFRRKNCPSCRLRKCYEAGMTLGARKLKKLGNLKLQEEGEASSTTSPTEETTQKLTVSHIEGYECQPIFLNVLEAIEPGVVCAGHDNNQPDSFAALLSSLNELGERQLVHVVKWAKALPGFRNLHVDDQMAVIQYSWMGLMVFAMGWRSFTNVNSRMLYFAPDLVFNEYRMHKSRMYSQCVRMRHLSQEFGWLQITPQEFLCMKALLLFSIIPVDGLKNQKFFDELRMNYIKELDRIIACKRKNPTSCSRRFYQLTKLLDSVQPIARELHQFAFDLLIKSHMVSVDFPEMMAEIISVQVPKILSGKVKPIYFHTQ
# Procedure: White bars represent no steroid (ethanol control). Wherein glucocorticoid receptor (GR) and progesterone receptor (PR).
# The cells were harvested 24 hours later and analyzed for luciferase activity. The data is normalized to protein that was measured using Bradford assay.
# Sequence similarities of amino acids in the AR with related human steroid receptors (glucocorticoid receptor (GR) and progesterone receptor (PR)) are significant in some domains such as the DNA-binding-domain (DBD). Although the AR-NTD shares less than 15% homology with the PR and GR, these receptors do interact with some of the same proteins such as SRC-1 (steroid receptor coactivator-1). […] Cells were co-transfected with expression plasmids for full-length hGR and PRβ and the relative reporter (i.e., pGR-Luc or PRE-E1b-Luc reporters). Cells were then treated with ethanol vehicle, dexamethasone (GR), 4-pregnene-3,20 dione (progesterone) (PR) followed by measurement of luciferase activity.
# Activation of the endogenous AR was measured in LNCaP human prostate cancer cells by measuring an androgen-responsive reporter containing androgen response elements (AREs). The PSA (6.1 kb)-luciferase reporter gene construct contains several well-characterized AREs and is induced by androgen.
# [2] = tested on: PSA mRNA; assay: Androgen-induced PSA mRNA levels in LNCaP cells (qRT-PCR); format: cell-based, human; details: R1881 1 nM, 16 hours; for inhibition of androgen-induced levels of PSA mRNA: 10 μg/ml, 1 hour pretreatment
# Procedure: Levels of PSA mRNA were measured by quantitative real-time (qRT)-PCR and normalized to levels of GAPDH mRNA (housekeeping gene). White bar: no R1881. Black bars: R1881 (1 nM). MNE: mean normalized expression. DMSO (no R1881) was arbitrarily set at 1.0 for each individual experiment. Bars represent the mean±SE from 3 separate experiments using triplicate technical samples from each experiment.
# PSA is an androgen-regulated gene containing several well-characterized androgen response elements (AREs) in the enhancer and promoter regions. Levels of PSA mRNA are induced by androgen by a mechanism dependent androgen receptor. To test if sintokamides would also block endogenous gene expression induced by androgen, levels of PSA mRNA were measured in response to the synthetic androgen R1881.
# [3] = tested on: LNCaP cells; assay: Androgen-dependent proliferation of LNCaP cells (BrdU incorporation); format: cell-based, human; details: R1881 0.1 nM, 3 days
# Procedure: BrdU incorporation was measured 3 days later to indicate changes in proliferation in response to androgen (see FIG. 3B).
compound,measurement,setting,value
"CCC(=O)N[C@H](C[C@H](C)C(Cl)Cl)C(=O)N1C(=O)C=C(OC)[C@@H]1C[C@H](C)C(Cl)Cl [CB1.1, Sintokamide C]",inhibition of R1881 induction of PSA (6.1)-luciferase,[1]; 5 μg/ml,inhibition
"CCC(=O)N[C@H](C[C@H](C)C(Cl)(Cl)Cl)C(=O)N1C(=O)C=C(OC)[C@@H]1CC(C)C [CB2.1, Sintokamide E]",inhibition of R1881 induction of PSA (6.1)-luciferase,[1]; 5 μg/ml,inhibition
"CCC(=O)N[C@H](C[C@H](C)C(Cl)(Cl)Cl)C(=O)N1C(=O)C=C(OC)[C@@H]1C[C@H](C)C(Cl)(Cl)Cl [CB4.0, Sintokamide B]",inhibition of androgen-induced levels of PSA mRNA,[2],inhibit
same,inhibition of R1881 induction of PSA (6.1)-luciferase,[1]; 5 μg/ml,inhibition
"C[C@]1(O)CC[C@H]2[C@@H]3CCC4=CC(=O)CCC4=C3C=C[C@@]21C [Sintokamide R1881, R1881, reference compound]",induction of levels of PSA mRNA,[2],at least 3 fold
same,proliferation over control (BrdU incorporation),[3],increased proliferation over control
same,induction of PSA-luciferase activity,[1],approximately 6 fold
"CCC(=O)N[C@H](CC(C)C)C(=O)N1C(=O)C=C(OC)[C@@H]1CC(C)C [non-chlorinated sintokamide, N—((R)-1-((S)-2-isobutyl-3-methoxy-5-oxo-2,5-dihydro-1H-pyrrol-1-yl)-4-methyl-1-oxopentan-2-yl)propionamide]",inhibition of R1881 induction of PSA (6.1)-luciferase,[1]; 10 μM,some activity
Dysamide A [CB3.0],inhibition of androgen-induced levels of PSA mRNA,[2],inhibit
same,inhibition of R1881 induction of PSA (6.1)-luciferase,[1]; 5 μg/ml,some activity
same,inhibition of R1881 induction of PSA (6.1)-luciferase,"[1]; 5 μg/ml, listed as Dysimide A",inhibition

# Source: US9487479B2, “Small molecule inhibitors of N-terminus activation of the androgen receptor” (The University of British Columbia, priority 2008, dated 2016)
